# Measurements taken from ChEMBL document CHEMBL1139108, “New thiopyrazolo[3,4-d]pyrimidine derivatives as anti-mycobacterial agents” (Bioorg Med Chem Lett, 2007).
# Test system: not listed separately
# Assay: Cytotoxicity against human HepG2 cells
# Type: cell-based
# Conditions: read-out: TD50 (the source's name)
row,SMILES,CC50 [µg/mL]
1,C=CCn1ncc2c(SCC#N)ncnc21,4
2,Clc1ccc(CSc2ncnc3c2cnn3Cc2cccnc2)cc1,> 40
3,N#CCn1ncc2c(SCc3ccc(Cl)cc3)ncnc21,2
4,c1ccc(CSc2ncnc3c2cnn3Cc2cccnc2)cc1,> 40
5,C=CCn1ncc2c(SCc3ccc(Cl)cc3)ncnc21,> 20

# Test system: Mycobacterium tuberculosis
# Assay: Antimycobacterial activity against Mycobacterium tuberculosis H37Rv
# Type: functional
# Conditions: not given
row,SMILES,MIC [µg/mL]
1,C=CCn1ncc2c(SCc3ccncc3)ncnc21,125
2,C=CCn1ncc2c(SCc3cccnc3)ncnc21,250
3,N#CCSc1ncnc2c1cnn2Cc1ccc(Cl)cc1,125
4,OCCSc1ncnc2c1cnn2Cc1ccccc1,63
5,OCCn1ncc2c(SCc3ccccc3)ncnc21,125
6,Clc1ccc(CSc2ncnc3[nH]ncc23)cc1,250
7,C#CCSc1ncnc2c1cnn2CC=C,63
8,Clc1ccccc1CSc1ncnc2[nH]ncc12,250
9,C=CCn1ncc2c(SCc3ccccc3Cl)ncnc21,32
10,Clc1ccccc1CSc1ncnc2c1cnn2Cc1ccccc1,250
11,C=CCSc1ncnc2c1cnn2Cc1ccc(Cl)cc1,16
12,c1nc(SCC2CC2)c2cn[nH]c2n1,125
13,N#CCSc1ncnc2[nH]ncc12,63
14,c1ccc(CSc2ncnc3c2cnn3Cc2ccccc2)cc1,16
15,CCCn1ncc2c(SCc3ccccc3)ncnc21,32
16,Clc1ccccc1Cn1ncc2c(SCc3ccccc3)ncnc21,16
17,c1ccc(Cn2ncc3c(SCc4ccncc4)ncnc32)cc1,32
18,C=CCCSc1ncnc2c1cnn2Cc1ccccc1,16
19,N#CCSc1ncnc2c1cnn2CC#N,8
20,C=CCCSc1ncnc2c1cnn2CC#N,63
21,N#CCSc1ncnc2c1cnn2Cc1cccnc1,63
22,C=CCSc1ncnc2c1cnn2CC=C,125
23,N#CCn1ncc2c(SCc3ccccc3)ncnc21,32

row,SMILES,MIC [µg/mL]
1,C#CCSc1ncnc2c1cnn2CC#C,63
2,C=CCn1ncc2c(SCC3CC3)ncnc21,125
3,c1ccc(Cn2ncc3c(SCC4CC4)ncnc32)cc1,16
4,C=CCCSc1ncnc2[nH]ncc12,125
5,C=CCSc1ncnc2c1cnn2Cc1ccccc1,32
6,c1ccc(CSc2ncnc3[nH]ncc23)cc1,250
7,Clc1ccc(CSc2ncnc3c2cnn3Cc2ccccc2)cc1,32
8,C=CCSc1ncnc2c1cnn2CCO,250
9,c1ccc(CSc2ncnc3c2cnn3Cc2ccncc2)cc1,16
10,C=CCSc1ncnc2c1cnn2CC1CC1,32
11,C=CCSc1ncnc2c1cnn2CC#N,16
12,C=CCSc1ncnc2c1cnn2Cc1ccncc1,63
13,c1cncc(CSc2ncnc3[nH]ncc23)c1,250
14,C=CCn1ncc2c(SCC#N)ncnc21,32
15,N#CCSc1ncnc2c1cnn2Cc1ccccc1,32
16,Clc1ccc(CSc2ncnc3c2cnn3Cc2ccc(Cl)cc2)cc1,63
17,Clc1ccc(CSc2ncnc3c2cnn3Cc2cccnc2)cc1,0.5
18,CCCSc1ncnc2[nH]ncc12,125
19,CCCSc1ncnc2c1cnn2Cc1ccccc1,16
20,C=CCn1ncc2c(SCCO)ncnc21,250
21,C=CCSc1ncnc2c1cnn2Cc1cccnc1,63
22,C#CCSc1ncnc2c1cnn2Cc1ccccc1,63
23,C=CCCn1ncc2c(SCc3ccccc3)ncnc21,16

row,SMILES,MIC [µg/mL]
1,C#CCn1ncc2c(SCc3ccccc3)ncnc21,32
2,N#CCn1ncc2c(SCc3ccc(Cl)cc3)ncnc21,8
3,C=CCCSc1ncnc2c1cnn2Cc1ccc(Cl)cc1,125
4,C=CCn1ncc2c(SCCC)ncnc21,63
5,OCCSc1ncnc2[nH]ncc12,250
6,c1ccc(Cn2ncc3c(SCc4cccnc4)ncnc32)cc1,32
7,C=CCCn1ncc2c(SCC=C)ncnc21,63
8,C=CCSc1ncnc2c1cnn2Cc1ccccc1Cl,63
9,c1cc(CSc2ncnc3[nH]ncc23)ccn1,250
10,Clc1ccc(Cn2ncc3c(SCc4ccccc4)ncnc32)cc1,16
11,C=CCCSc1ncnc2c1cnn2CC=C,32
12,C=CCSc1ncnc2c1cnn2CCC,125
13,C=CCCSc1ncnc2c1cnn2Cc1cccnc1,32
14,C=CCSc1ncnc2[nH]ncc12,250
15,c1ccc(CSc2ncnc3c2cnn3Cc2cccnc2)cc1,8
16,c1ccc(CSc2ncnc3c2cnn3CC2CC2)cc1,250
17,C=CCn1ncc2c(SCc3ccc(Cl)cc3)ncnc21,8
18,C#CCn1ncc2c(SCC=C)ncnc21,32
19,C=CCn1ncc2c(SCc3ccccc3)ncnc21,32
20,CC[C@@H](CO)NCCN[C@@H](CC)CO [ETHAMBUTOL],2.5
21,NNC(=O)c1ccncc1 [ISONIAZID],0.25
22,CO[C@H]1/C=C/O[C@@]2(C)Oc3c(C)c(O)c4c(O)c(c(/C=N/N5CCN(C)CC5)c(O)c4c3C2=O)NC(=O)/C(C)=C\C=C\[C@H](C)[C@H](O)[C@@H](C)[C@@H](O)[C@@H](C)[C@H](OC(C)=O)[C@@H]1C [RIFAMPIN],0.016
